In paper PMC4339527 (Bioorganic & medicinal chemistry, 2015):
Read-outs that look alike come from different tables or passages of the source.

How the values were obtained:
P. aeruginosa T3SS [1] = target: T1, P. aeruginosa T3SS (Pseudomonas aeruginosa, UniProt P95434); test: T3SS-mediated secretion assay; type: cell-based; details: for potency increase in the β-lactamase secretion assay over the unoptimized compound: 37a vs 34o, 37b vs 34r
P. aeruginosa T3SS [2] = target: T1, P. aeruginosa T3SS; type: cell-based; details: for IC50: read-out: translocation IC50, CHO cells + P. aeruginosa PA99U, LDH release
P. aeruginosa T3SS [3] = details: read-out: translocation IC50; activity in translocation assays; cited from earlier work

For `CC[C@@H](Oc1ncc(Cl)cc1Cl)C(=O)NCc1ccc2sccc2c1` [Compound 37a, (R)-N-[(Benzothiophene-5-yl)methyl]-2-[(3,5-dichloropyridin-2-yl)oxy]butanamide], the “potency increase in the β-lactamase secretion assay over the unoptimized compound” value (P. aeruginosa T3SS [1]) was 6 fold.
In the case of `CC[C@@H](Oc1ncc(Cl)cc1Cl)C(=O)NCc1ccc2[nH]ccc2c1` [Compound 37b, (R)-N-[(Indol-5-yl)methyl]-2-[(3,5-dichloropyridin-2-yl)oxy]butanamide], the “potency increase in the β-lactamase secretion assay over the unoptimized compound” value (P. aeruginosa T3SS [1]) is reported as 2.6 fold and the “improvement in the translocation assay over the unoptimized compound” value (P. aeruginosa T3SS [2]; 37b vs 34r) is reported as 2.5 fold.
In the case of `O=C(NN=Cc1cc(Br)cc(Br)c1O)c1ccc([N+](=O)[O-])cc1` [INP-007], the IC50 (P. aeruginosa T3SS [3]) is given as 0.8 µM.
“N-(Benzothiophene-5-yl)-2-(2,4-dichlorophenoxy)propanamide [Compound 34o]” showed an IC50 (P. aeruginosa T3SS [1]; read-out: secretion IC50) of 6 ± 1.6 µM and an IC50 (P. aeruginosa T3SS [2]) of 5.3 ± 3.7 µM.
“N-[(Benzimidazol-5-ylmethyl])-2-(2,4-dichlorophenoxy)propanamide [Compound 34q]” showed an IC50 (P. aeruginosa T3SS [2]) of 33 ± 8 µM.
